# Results published in patent US8033977B2, “Methods of enhancing radiation effects with metal nanoparticles” (NanoProbes, Inc., priority 1998, dated 2011).
# What was measured:
# [1] = test system: test animal tumor models; conditions: co-administered with PALA, tetrahydrouridine and 5-fluoro-2′deoxyctidine, fractionated x-ray treatments; cited from earlier work
# [2] = test system: cellular DNA; conditions: after incorporation into cellular DNA in vitro; 22-45% of thymine substituted; cited from earlier work
# [3] = test system: CD1 mice; experiment: In vivo tolerance of tungsten heteropolyanions in mice; conditions: injected into CD1 mice
# Experimental: A column containing carboxymethyl cellulose medium was prepared and charged with tetramethylammonium acetate, then rinsed with deionized water. Silicotungstic acid (H4SiW12O40.30H2O, 10 mg/ml in water) was injected onto the column and ion exchanged to produce the cluster surrounded and charge-shielded by quaternary ammonium ions.
# A complex between the quaternary cation, tetramethylammonium was also formed by mixing equimolar amounts of H4SiW12O40.30H2O, 10 mg/ml in water and tetramethylammonium bromide, 100 mg/ml in water. Some white precipitate was formed that was removed by centrifugation at 13 k×g for 10 minutes, then filtering through a molecular filter, Amicon Centricon 30, that only passes molecules less than 30,000 Daltons. […] Dilutions were prepared and injected into CD1 mice. Good tolerance and normal weight gain was found at blood concentrations of approximately 5 mg/ml, whereas the uncomplexed heteropoltungstate was lethal at 1 mg/ml.
molecule,measurement,setting,value
Nc1nc(=O)n([C@H]2C[C@H](O)[C@@H](CO)O2)cc1Cl [5-chloro-2′-deoxycytidine],dose enhancement,[1],threefold
O=c1[nH]c(=O)n([C@H]2C[C@H](O)[C@@H](CO)O2)cc1I [iododeoxyuridine],radiotherapeutic advantage (factor),[2],about 3
Silicotungstic acid [uncomplexed heteropoltungstate],lethal blood concentration,[3],1 mg/mL
